Laboratory results taken from publication PMC5951806, “Rapid labelling and covalent inhibition of intracellular native proteins using ligand-directed N-acyl-N-alkyl sulfonamide” (Nature Communications, 2018).

Assays:
Assay in all cases: TMT LC-MSMS of 11-labelled proteins
Format in all cases: cell-based
[1] = target: 60 kDa heat shock protein, mitochondrial (HSPD1) (Homo sapiens, UniProt P10809)
[2] = target: T1, Carnitine O-palmitoyltransferase 1, liver isoform (CPT1A) (Homo sapiens, UniProt P50416)
T1 sequence (P50416 1-773): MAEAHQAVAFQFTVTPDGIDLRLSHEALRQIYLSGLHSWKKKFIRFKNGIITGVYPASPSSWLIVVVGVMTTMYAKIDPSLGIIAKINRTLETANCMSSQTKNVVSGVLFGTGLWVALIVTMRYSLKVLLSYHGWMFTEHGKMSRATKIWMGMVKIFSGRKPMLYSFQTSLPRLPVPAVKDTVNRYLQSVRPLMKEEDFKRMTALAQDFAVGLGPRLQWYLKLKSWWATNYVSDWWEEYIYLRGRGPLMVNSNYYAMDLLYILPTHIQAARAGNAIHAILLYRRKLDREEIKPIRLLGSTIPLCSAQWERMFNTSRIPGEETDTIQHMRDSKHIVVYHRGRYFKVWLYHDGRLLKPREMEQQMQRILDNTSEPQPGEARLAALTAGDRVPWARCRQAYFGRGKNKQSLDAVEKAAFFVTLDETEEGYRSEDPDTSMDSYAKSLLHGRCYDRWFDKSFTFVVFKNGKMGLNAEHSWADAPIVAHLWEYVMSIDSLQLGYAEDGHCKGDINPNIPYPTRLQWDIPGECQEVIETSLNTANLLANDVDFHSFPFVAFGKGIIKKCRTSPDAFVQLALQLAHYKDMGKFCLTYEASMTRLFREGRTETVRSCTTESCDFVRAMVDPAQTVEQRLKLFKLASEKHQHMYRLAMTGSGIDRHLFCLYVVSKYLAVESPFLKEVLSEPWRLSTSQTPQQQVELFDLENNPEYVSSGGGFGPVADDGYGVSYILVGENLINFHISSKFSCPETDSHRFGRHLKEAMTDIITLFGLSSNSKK

[3] = target: GTP-binding nuclear protein RAN (RAN) (Homo sapiens, UniProt P62826)
[4] = sheet Merged, SKBR3 cells, 11 0.5 µM 3 h vs DMSO
[5] = sheet Merged, SKBR3 cells, 11 0.5 µM 3 h vs with PU-H71 10 µM
[6] = sheet Exp1, SKBR3 cells, 11 0.5 µM 3 h vs DMSO
[7] = sheet Exp1, SKBR3 cells, 11 0.5 µM 3 h vs with PU-H71 10 µM

Chain of 60 kDa heat shock protein, mitochondrial (HSPD1) (P10809 27-573): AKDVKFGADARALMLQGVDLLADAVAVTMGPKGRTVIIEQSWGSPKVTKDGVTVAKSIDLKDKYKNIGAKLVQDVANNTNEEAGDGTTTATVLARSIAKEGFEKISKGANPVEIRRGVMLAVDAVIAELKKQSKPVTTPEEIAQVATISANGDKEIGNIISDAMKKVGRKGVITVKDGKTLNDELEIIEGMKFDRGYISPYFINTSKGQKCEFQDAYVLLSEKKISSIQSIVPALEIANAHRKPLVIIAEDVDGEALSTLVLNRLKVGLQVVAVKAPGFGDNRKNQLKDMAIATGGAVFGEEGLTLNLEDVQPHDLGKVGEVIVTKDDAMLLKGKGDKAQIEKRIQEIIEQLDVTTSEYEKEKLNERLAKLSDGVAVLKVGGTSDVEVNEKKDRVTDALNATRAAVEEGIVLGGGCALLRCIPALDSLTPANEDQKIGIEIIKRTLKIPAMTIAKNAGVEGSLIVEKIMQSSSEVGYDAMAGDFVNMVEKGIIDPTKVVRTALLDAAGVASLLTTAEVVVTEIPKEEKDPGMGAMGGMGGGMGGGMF

## CC(=O)Oc1ccc2c(c1)Oc1cc(OC(C)=O)ccc1C21OC(=O)c2cc(C(=O)NCCOCCOCCNC(=O)CCCC(=O)N(CC#N)S(=O)(=O)c3ccc(C(=O)NCCCn4c(Sc5cc6c(cc5I)OCO6)nc5c(N)ncnc54)cc3)ccc21 [compound 11]
[1]; Exp3, HSPD1
  Abundance Ratio: (11) / (11 with PU-H71): 0.857
  Abundance Ratio: (11) / (DMSO): 2.057
  Abundances (Grouped): 11: 57.6
  Abundances (Grouped): 11 with PU-H71: 67.2
[1]; sheet Exp2, HSPD1
  Abundance Ratio: (11) / (11 with PU-H71): 1.035
  Abundance Ratio: (11) / (DMSO): 2.527
  Abundances (Grouped): 11: 61.4
  Abundances (Grouped): 11 with PU-H71: 59.3
[1]; [4]
  Abundance Ratio: (11) / (DMSO): 2.28
[1]; [5]
  Abundance Ratio: (11) / (11 with PU-H71): 0.942
[2]; Exp3, CPT1A
  Abundance Ratio: (11) / (11 with PU-H71): 0.719
  Abundance Ratio: (11) / (DMSO): 1.338
  Abundances (Grouped): 11: 20.2
[2]; Exp3, CPT1A, with PU-H71
  Abundances (Grouped): 11 with PU-H71: 28.1
[2]; [6]
  Abundance Ratio: (11) / (DMSO): 2.506
[2]; [7]
  Abundance Ratio: (11) / (11 with PU-H71): 0.783
[2]; [4]
  Abundance Ratio: (11) / (DMSO): 1.461
[2]; [5]
  Abundance Ratio: (11) / (11 with PU-H71): 0.79
[3]; Exp3, RAN
  Abundance Ratio: (11) / (11 with PU-H71): 0.98
  Abundance Ratio: (11) / (DMSO): 2.764
  Abundances (Grouped): 11: 43.4
  Abundances (Grouped): 11 with PU-H71: 44.3
[3]; [6]
  Abundance Ratio: (11) / (DMSO): 2.108
[3]; [7]
  Abundance Ratio: (11) / (11 with PU-H71): 0.767
[3]; sheet Exp2, RAN
  Abundance Ratio: (11) / (11 with PU-H71): 0.778
  Abundance Ratio: (11) / (DMSO): 2.161
  Abundances (Grouped): 11: 78
  Abundances (Grouped): 11 with PU-H71: 100.3
[3]; [4]
  Abundance Ratio: (11) / (DMSO): 2.599
[3]; [5]
  Abundance Ratio: (11) / (11 with PU-H71): 0.946
